{"source": "patent US20120165403A1", "about": "“METHODS OF INHIBITING THE ACTIVITY OF HSP90 AND/OR ARYL HYDROCARBON RECEPTOR” (UNIVERSITY OF ROCHESTER, priority 2004, published 2012)", "key": {"purified human hsp90": {"target": "T1, purified human hsp90 (Homo sapiens, UniProt P07900)", "T1 construct": "purchased Stressgen", "assay": "Affinity chromatography on EGCG-conjugated Sepharose, purified hsp90", "type": "binding", "conditions": "purified hsp90 alone", "description": "EGCG was conjugated to cyanogen bromide (CNBr)-activated Sepharose (Sigma). EGCG (2.5 mg) was dissolved in 5004 coupling buffer (0.1M NaHCO3, 0.5M NaCl, pH 6.0). CNBr-activated Sepharose was swelled and washed in 1 mM HCl on a sintered glass filter followed by a wash with coupling buffer. CNBr-activated Sepharose beads were added to the EGCG in coupling buffer at a final concentration of 5 mg EGCG/ml of wet gel. The coupling solution containing EGCG and Sepharose was mixed end-over end at 4° C. overnight. Remaining active groups were blocked for 2 h at room temperature in Tris-HCl (0.1M, pH 8). EGCG-conjugated Sepharose was washed with three cycles of alternating pH wash buffers (Buffer 1: 0.1M acetate, 0.5M NaCl, pH4.0; Buffer 2: 0.1M Tris-HCl, 0.5M NaCl, pH 8.0). EGCG-conjugated beads were then equilibrated in binding buffer (0.05M Tris-HCl, 0.15M sodium chloride, pH 7.5). The control unconjugated CNBr-activated Sepharose beads were prepared as above in the absence of EGCG.\nFor affinity chromatography using histidine-purified XAP2 and purified human hsp90 (Stressgen), 30 μl of unconjugated or EGCG-conjugated Sepharose were incubated for 1 h at room temperature with either 1:4 diluted ^35S-XAP2 in RRL, 30 μl of histidine purified ^35S-XAP2, 0.6 μg of purified hsp90, or 20 μl of histidine purified ^35S-XAP2 in the presence of 0.6 μg of purified hsp90. […]"}, "AhR": {"target": "T2, AhR (Mus musculus, UniProt P30561)", "T2 construct": "made in house; host or cells: coupled transcription/translation in rabbit reticulocyte lysate (TNT, Promega), 35S-labelled", "T2 sequence (P30561 10-848)": "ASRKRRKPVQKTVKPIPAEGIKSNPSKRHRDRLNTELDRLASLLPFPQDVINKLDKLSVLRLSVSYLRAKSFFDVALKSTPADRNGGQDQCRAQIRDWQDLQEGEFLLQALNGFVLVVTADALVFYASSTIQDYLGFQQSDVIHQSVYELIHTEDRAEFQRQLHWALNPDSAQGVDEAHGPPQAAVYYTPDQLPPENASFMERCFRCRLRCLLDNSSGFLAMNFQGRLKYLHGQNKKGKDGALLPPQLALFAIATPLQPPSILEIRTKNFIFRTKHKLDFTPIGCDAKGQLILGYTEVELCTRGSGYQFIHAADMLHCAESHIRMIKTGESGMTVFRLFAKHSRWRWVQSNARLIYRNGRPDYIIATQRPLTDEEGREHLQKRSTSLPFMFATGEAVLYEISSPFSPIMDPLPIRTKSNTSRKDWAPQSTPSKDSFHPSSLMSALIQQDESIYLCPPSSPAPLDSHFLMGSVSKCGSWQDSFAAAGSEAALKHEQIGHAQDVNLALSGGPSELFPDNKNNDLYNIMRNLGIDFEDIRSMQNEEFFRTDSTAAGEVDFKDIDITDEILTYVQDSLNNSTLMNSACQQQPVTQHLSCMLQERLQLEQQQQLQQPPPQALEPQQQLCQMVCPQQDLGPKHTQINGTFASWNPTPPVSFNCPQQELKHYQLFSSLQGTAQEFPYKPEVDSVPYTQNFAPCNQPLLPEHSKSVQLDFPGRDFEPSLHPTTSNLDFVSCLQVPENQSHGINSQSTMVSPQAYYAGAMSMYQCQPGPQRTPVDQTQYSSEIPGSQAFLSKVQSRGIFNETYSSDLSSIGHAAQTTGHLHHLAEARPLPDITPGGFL", "assay": "Affinity chromatography on EGCG-conjugated Sepharose, in vitro translated AhR", "type": "binding, murine", "conditions": "35S-AhR in vitro translated in RRL", "description": "Murine AhR and ARNT cDNA (obtained from J. Whitlock and O. Hankinson, respectively) were inserted into pcDNA3 (Invitrogen, Carlsbad, Calif.). Chicken hsp90 constructs (FIG. 5), c90711hsp (wild-type), c90G94D (wild-type point mutant gly94→Asp (Grenert et al., J. Biol. Chem. 272:23843-23850 (1997), which is hereby incorporated by reference in its entirety), c90D92A (wild-type point mutant Asp92→Ala (Sullivan et al., J. Biol. Chem. 268:20373-20379 (1993), which is hereby incorporated by reference in its entirety), c90N221 (wild-type truncation mutant encoding a.a. 221-728 (Sullivan et al., J. Biol. Chem. 268:20373-20379 (1993), which is hereby incorporated by reference in its entirety)), c90N303 (a.a. 303-728) and c90N538 (a.a. 538-728) were kind gifts from Dr. D. Toft (Rochester, Minn.). The C-terminal truncation mutant c900507 (a.a. 1-221) was obtained from Dr. L. Neckers (Rockville, Md.) (Grenert et al., J. Biol. Chem. 272:23843-23850 (1997); Marcu et al., J. Biol. Chem. 275:37181-37186 (2000), which are hereby incorporated by reference in their entirety). Human p23 cDNA was excised from pQE80-p23 (obtained from W. Chan Stockton, Calif.) by sequential digests using the restriction enzymes Sad (3′-end) and BamHI (5′-end) and inserted into the similarly digested pET28a (Novagen, Madison, Wis.). […]"}}}
{"smiles": "O=C(O[C@@H]1Cc2c(O)cc(O)cc2O[C@@H]1c1cc(O)c(O)c(O)c1)c1cc(O)c(O)c(O)c1", "note": "[EGCG, epigallocatechin gallate]", "values": [{"measurement": "binding of purified hsp90 to EGCG-Sepharose", "setting": "purified human hsp90", "value": "eluted specifically from EGCG-Sepharose"}, {"measurement": "binding of AhR to immobilized EGCG", "setting": "AhR", "value": "not able to bind immobilized EGCG"}]}
